Source: PMC8312697, “Mechanistic Investigations Support Liver Safety of Ubrogepant” (Toxicological Sciences, 2020)

Columns and labels:
human hepatocytes = test: Covalent protein binding in human hepatocytes / reactive metabolite body burden; assay type: in vitro ADME; conditions: for Projected body burden from covalent-binding studies: covalent protein binding × dose, telcagepant 560 mg, MK-3207 80 mg, ubrogepant 200 mg; for covalent protein binding: radioactivity bound in human hepatocytes
Protocol: The “body burden” is a quantitative estimate of reactive metabolite exposure that was determined for each drug based on in vitro covalent protein binding of radioactivity in human hepatocytes (in pmol equivalents/mg) multiplied by a clinically effective daily dose (in mg/day). Detailed methods used in the in vitro human hepatocyte covalent-binding experiments have been reported by [Nakayama et al. (2009)].

CGRP receptor = target: T1, CGRP receptor (Homo sapiens, UniProt O60894+Q16602); test: CGRP-stimulated cAMP response in HEK293 cells; assay type: cell-based; conditions: read-out: Potency IC50
T1 construct: expressed in transfected cells; host or cells: HEK293
T1 sequence (Q16602 23-461): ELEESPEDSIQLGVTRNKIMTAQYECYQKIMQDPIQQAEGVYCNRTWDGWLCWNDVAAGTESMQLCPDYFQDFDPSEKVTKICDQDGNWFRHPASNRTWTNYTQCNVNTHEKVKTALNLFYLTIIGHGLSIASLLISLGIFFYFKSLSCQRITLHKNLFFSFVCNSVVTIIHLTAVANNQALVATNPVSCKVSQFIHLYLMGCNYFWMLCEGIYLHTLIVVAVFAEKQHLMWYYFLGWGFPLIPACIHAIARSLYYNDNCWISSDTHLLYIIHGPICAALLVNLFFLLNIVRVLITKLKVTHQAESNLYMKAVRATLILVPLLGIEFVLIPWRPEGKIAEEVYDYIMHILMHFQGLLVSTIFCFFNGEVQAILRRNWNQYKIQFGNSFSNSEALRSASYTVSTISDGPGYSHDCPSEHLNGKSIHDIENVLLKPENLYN
T1 sequence (O60894 27-148): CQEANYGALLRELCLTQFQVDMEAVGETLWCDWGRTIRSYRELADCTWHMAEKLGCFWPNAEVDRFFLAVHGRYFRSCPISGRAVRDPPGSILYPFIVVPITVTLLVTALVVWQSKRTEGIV

HepG2 cells = test: Oxidative stress assay (ROS, DHE fluorescence); assay type: cell-based, human
Protocol: Three independent studies in triplicate were conducted on HepG2 cells, and two independent studies in triplicate were conducted on primary human hepatocytes.
(§1) To assess the potential for ubrogepant to induce oxidative stress, assays to measure formation of reactive oxygen species (ROS) were conducted by Cyprotex. HepG2 cells were cultured in triplicate with ubrogepant for 6 or 24 hours at concentrations ranging from 0.01 – 150 μM, and ROS formation was assayed by DHE fluorescence assay. HepG2 cells have reduced metabolic activity relative to primary human hepatocytes.^3,4 Three independent studies in triplicate were conducted on HepG2 cells.
as §1, with “MK-3207” for “ubrogepant”, “ROS” for “reactive oxygen species (ROS)”, “μM” for “μM,”, “conducted.” for “conducted on HepG2 cells.”

HepG2 cell = HepG2 cell glucose/galactose shift model; assay type: cell-based, human
[1] = target: T2, bile salt export pump (BSEP) (Homo sapiens, UniProt O95342); test: HEPATOPAC taurocholic acid transport / bile acid excretion; assay type: cell-based
T2 construct: host or cells: human hepatocytes in HEPATOPAC micropatterned co-culture
T2 sequence (O95342 whole entry): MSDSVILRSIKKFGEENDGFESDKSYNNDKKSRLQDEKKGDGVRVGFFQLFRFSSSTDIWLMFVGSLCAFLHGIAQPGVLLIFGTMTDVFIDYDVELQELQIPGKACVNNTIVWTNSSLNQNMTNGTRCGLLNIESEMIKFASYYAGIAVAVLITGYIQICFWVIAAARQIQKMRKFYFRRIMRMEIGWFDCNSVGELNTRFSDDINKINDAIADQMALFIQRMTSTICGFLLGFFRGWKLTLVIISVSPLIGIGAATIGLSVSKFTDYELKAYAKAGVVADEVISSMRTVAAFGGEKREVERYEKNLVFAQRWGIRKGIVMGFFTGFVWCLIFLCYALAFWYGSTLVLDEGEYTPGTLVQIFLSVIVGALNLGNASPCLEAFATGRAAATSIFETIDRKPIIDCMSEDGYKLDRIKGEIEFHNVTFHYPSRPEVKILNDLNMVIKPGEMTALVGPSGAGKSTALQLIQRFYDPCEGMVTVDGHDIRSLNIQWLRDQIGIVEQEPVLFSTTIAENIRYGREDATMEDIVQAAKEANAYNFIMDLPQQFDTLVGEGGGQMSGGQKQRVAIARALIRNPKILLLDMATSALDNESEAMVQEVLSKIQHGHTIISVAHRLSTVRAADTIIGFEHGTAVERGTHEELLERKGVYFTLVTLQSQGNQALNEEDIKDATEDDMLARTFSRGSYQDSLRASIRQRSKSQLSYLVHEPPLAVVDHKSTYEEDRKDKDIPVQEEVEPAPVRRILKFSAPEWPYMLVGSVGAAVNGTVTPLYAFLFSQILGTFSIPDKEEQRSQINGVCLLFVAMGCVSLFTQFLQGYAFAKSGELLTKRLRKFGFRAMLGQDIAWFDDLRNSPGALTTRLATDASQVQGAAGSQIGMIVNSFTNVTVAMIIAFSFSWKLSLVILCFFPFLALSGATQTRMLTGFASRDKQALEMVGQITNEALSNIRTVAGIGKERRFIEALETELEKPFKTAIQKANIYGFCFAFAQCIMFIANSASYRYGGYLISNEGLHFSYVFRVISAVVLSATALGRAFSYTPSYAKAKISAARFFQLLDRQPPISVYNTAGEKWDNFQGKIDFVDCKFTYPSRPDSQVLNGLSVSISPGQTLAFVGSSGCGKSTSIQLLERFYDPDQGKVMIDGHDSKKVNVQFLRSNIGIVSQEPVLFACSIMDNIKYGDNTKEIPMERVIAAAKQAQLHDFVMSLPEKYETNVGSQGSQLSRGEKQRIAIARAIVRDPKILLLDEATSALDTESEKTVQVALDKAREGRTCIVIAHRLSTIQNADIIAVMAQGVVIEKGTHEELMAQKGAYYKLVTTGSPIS
From the text: The human HEPATOPAC model was also used to measure the effects of test agents on transport of taurocholic acid as an indicator of altered bile salt export pump (BSEP) function ([Li et al., 2017]). Safe dose perspective is gained from comparing in vitro concentration response results to calculated liver inlet Cmax (maximum plasma concentration).

[2] = test system: Nrf2 oxidative stress and Nrf1 proteasomal stress pathways; test: In vitro rat HEPATOPAC gene expression BA-LRA; assay type: cell-based; conditions: 50 μM
[3] = test system: HEPATOPAC hepatocyte coculture; test: HEPATOPAC urea synthesis (mitochondrial function); assay type: cell-based, rat; conditions: 50 µM
Protocol: Effects of test agents on mitochondrial function were assessed from media collected in the same HEPATOPAC studies by monitoring urea synthesis rates ([Khetani et al., 2013]).

NTCP = target: T3, NTCP (Homo sapiens, UniProt Q14973); test: NTCP uptake transporter inhibition assay; assay type: cell-based; conditions: for inhibition of NTCP-mediated probe substrate transport: uptake transporter inhibition assay
T3 construct: expressed in transfected cells; host or cells: CHO (telcagepant); HEK293 (ubrogepant, MK-3207)
T3 sequence (Q14973 1-349): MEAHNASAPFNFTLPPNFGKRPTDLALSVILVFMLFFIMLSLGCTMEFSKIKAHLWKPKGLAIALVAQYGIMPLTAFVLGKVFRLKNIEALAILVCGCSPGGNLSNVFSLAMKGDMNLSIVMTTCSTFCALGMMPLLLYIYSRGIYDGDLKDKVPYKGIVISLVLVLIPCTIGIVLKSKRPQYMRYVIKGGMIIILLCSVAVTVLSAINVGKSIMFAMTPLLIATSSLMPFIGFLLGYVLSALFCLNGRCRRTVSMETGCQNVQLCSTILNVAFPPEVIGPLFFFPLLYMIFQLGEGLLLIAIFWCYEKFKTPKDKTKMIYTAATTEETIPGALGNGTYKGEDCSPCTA
Protocol: To assess the functional impact of ubrogepant on the human ABC efflux transporters BSEP, MRP3, and MRP4, in vitro vesicular transport inhibition assays were conducted by Solvo Biotechnology (Szeged, Hungary). The ability of ubrogepant to inhibit the BSEP-mediated transport (and accumulation) of a probe substrate was tested at concentrations ranging from 0.04 – 30 μM, where the latter defined the upper limit of compound solubility in the BSEP assay buffer. For the MRP3 and MRP4 vesicle-based transporter assessments, ubrogepant concentrations of 0.1 to 70 μM were used. To assess the functional impact of ubrogepant on the human SLC (uptake) transporter NTCP, in vitro experiments were performed using HEK293 cells stably expressing NTCP. The ability of ubrogepant to inhibit NTCP-mediated uptake (and accumulation) of taurocholate was tested at concentrations ranging from 0.04 – 30 μM.
To assess the functional impact of MK-3207 on the human ABC efflux transporters BSEP, MRP3 and MRP4, in vitro vesicular transport inhibition assays were conducted by Solvo Biotechnology (Szeged, Hungary) and overseen by DSSI. BSEP transport was assessed in the presence of 0.5-30 µM MK-3207; MRP3 and MRP4 transport was assessed in the presence of 0.11-80 µM MK-3207. The upper limits of these ranges were determined by compound solubility in each assay buffer. NTCP transporter inhibition was assessed in NTCP-expressing HEK293 cells in the presence of 0.03 – 25 µM MK-3207.

dog = test: Conventional nonclinical toxicology study, dog; conditions: 1M dog

## C[C@@H]1[C@H](c2ccccc2)C[C@H](NC(=O)c2cnc3c(c2)C[C@@]2(C3)C(=O)Nc3ncccc32)C(=O)N1CC(F)(F)F [Ubrogepant]
Human hepatocytes
  Projected body burden from covalent-binding studies: 4600
  covalent protein binding: 23 pmol equivalents/mg
CGRP receptor
  IC50: 0.08 nM
HepG2 cells; HepG2, 6-hour incubation
  induction of oxidative stress (ROS formation): not evident
HepG2 cells; HepG2, 24-hour incubation
  induction of oxidative stress (ROS formation): modest induction of oxidative stress

## O=C(N[C@@H]1CC[C@@H](c2cccc(F)c2F)CN(CC(F)(F)F)C1=O)N1CCC(n2c(=O)[nH]c3ncccc32)CC1 [Telcagepant]
HepG2 cell
  mitochondrial toxicity potential: did not raise mitochondrial safety concerns
Human hepatocytes
  Projected body burden from covalent-binding studies: 14600
  covalent protein binding: 26 pmol equivalents/mg
[1]; 10.7× estimated unbound liver Cmax
  effect on bile acid excretion: No effect on bile acid excretion
[2]
  BA-LRA score: > 0.2
HepG2 cells; HepG2, 24-hour incubation
  induction of oxidative stress (ROS formation): modest induction of oxidative stress
[3]
  effect on urea (mitochondrial function): No effect on urea
NTCP; CHO cells expressing NTCP, up to 25 μM
  NTCP inhibition: > 50%
NTCP; taurocholate uptake, read-out: NTCP estimated IC50
  IC50: 19400 nM
NTCP
  inhibition of NTCP-mediated probe substrate transport: inhibited

## O=C(CN1C(=O)C2(CCCC2)NC[C@H]1c1cc(F)cc(F)c1)Nc1ccc2c(c1)C[C@@]1(C2)C(=O)Nc2ncccc21 [MK-3207]
HepG2 cell
  mitochondrial toxicity potential: did not raise mitochondrial safety concerns
Human hepatocytes
  Projected body burden from covalent-binding studies: 14 720
  covalent protein binding: 184 pmol equivalents/mg
CGRP receptor
  IC50: 0.12 nM
dog
  Pivotal conventional nonclinical toxicology study liver findings: slight periportal vacuolation with < 4× ALT/AST associated with excessive body weight loss
  exposure margin: 17 ×
[1]; 4.4× estimated unbound liver Cmax (highest testable concentration, solubility)
  effect on bile acid excretion: no significant impact was observed on biliary excretion
[2]
  BA-LRA score: > 0.2
HepG2 cells; HepG2, 6-hour incubation
  induction of oxidative stress (ROS formation): not evident
HepG2 cells; HepG2, 24-hour incubation
  induction of oxidative stress (ROS formation): modest induction of oxidative stress
[3]
  effect on urea (mitochondrial function): No effect on urea
NTCP
  inhibition of NTCP-mediated probe substrate transport: No inhibition was observed
